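Grown in 96-well plates, cells were treated for 48 hours with each compound at five concentrations. Insufficient inhibition: endpoint recorded as highest concentration tested. GI50 marks 50% less growth. TGI marks complete inhibition of growth.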
Assays:
Assay in all cases: DTP human tumour cell line panel, 48 h
SK-OV-3 ovarian = test system: SK-OV-3 ovarian
NCI-H23 lung = test system: NCI-H23 lung
SF-268 CNS = test system: SF-268 CNS
SN12C renal = test system: SN12C renal
A498 renal = test system: A498 renal
M14 melanoma = test system: M14 melanoma
COLO 205 colon = test system: COLO 205 colon
DU-145 prostate = test system: DU-145 prostate
PC-3 prostate = test system: PC-3 prostate
HOP-92 NSCLC = test system: HOP-92 NSCLC

CN(C(=O)C12C3C4C1C1C2C3C41C(=O)C(C)(C)C)C(C)(C)C (stereo not drawn)
TGI (SK-OV-3 ovarian): > 100 µM | TGI (NCI-H23 lung): > 100 µM | TGI (SF-268 CNS): > 100 µM | TGI (SN12C renal): > 100 µM | TGI (A498 renal): > 100 µM | TGI (M14 melanoma): > 100 µM | TGI (COLO 205 colon): > 100 µM

CSc1ccc(C2=NN(C(C)=O)C(c3cc(C)cs3)C2)cc1 (stereo not drawn)
GI50 (SK-OV-3 ovarian): 38.2 µM | TGI (SK-OV-3 ovarian): > 100 µM | GI50 (DU-145 prostate): 34.6 µM | TGI (DU-145 prostate): > 100 µM | GI50 (NCI-H23 lung): 29.9 µM | TGI (NCI-H23 lung): > 100 µM | GI50 (PC-3 prostate): 20.2 µM | TGI (PC-3 prostate): 95.6 µM | GI50 (SF-268 CNS): 35.6 µM | TGI (SF-268 CNS): > 100 µM | GI50 (SN12C renal): 26.2 µM | TGI (SN12C renal): > 100 µM | GI50 (HOP-92 NSCLC): 21.6 µM | TGI (HOP-92 NSCLC): 90.1 µM | GI50 (COLO 205 colon): 17.3 µM | TGI (COLO 205 colon): 35.8 µM

CCOC(=O)NC(=O)c1cn(C2OC(COC(=O)CCCCCCCCC(=O)OCC3OC(n4cc(C(=O)NC(=O)OCC)c(=O)[nH]c4=O)C(O)C3O)C(O)C2O)c(=O)[nH]c1=O (stereo not drawn)
TGI (NCI-H23 lung): > 100 µM | TGI (SF-268 CNS): > 100 µM | TGI (SN12C renal): > 100 µM | TGI (A498 renal): > 100 µM | TGI (M14 melanoma): > 100 µM

O=C(c1ccco1)c1nc2ccc(C(F)(F)F)cc2[n+]([O-])c1C(F)(F)F
GI50 (SK-OV-3 ovarian): 33.4 µM | TGI (SK-OV-3 ovarian): > 100 µM | GI50 (DU-145 prostate): 42.7 µM | TGI (DU-145 prostate): > 100 µM | GI50 (NCI-H23 lung): 46.7 µM | TGI (NCI-H23 lung): > 100 µM | GI50 (PC-3 prostate): 28.7 µM | TGI (PC-3 prostate): > 100 µM | GI50 (SF-268 CNS): 34.3 µM | TGI (SF-268 CNS): > 100 µM | GI50 (SN12C renal): > 100 µM | TGI (SN12C renal): > 100 µM | GI50 (A498 renal): 33.7 µM | TGI (A498 renal): > 100 µM | GI50 (M14 melanoma): > 100 µM | TGI (M14 melanoma): > 100 µM | GI50 (COLO 205 colon): 77.8 µM | TGI (COLO 205 colon): > 100 µM

COc1cnc2cc(C(=O)O)c3c([N+](=O)[O-])cccc3c2c1
TGI (SK-OV-3 ovarian): > 100 µM | TGI (DU-145 prostate): > 100 µM | TGI (NCI-H23 lung): > 100 µM | TGI (PC-3 prostate): > 100 µM | TGI (SF-268 CNS): > 100 µM | TGI (SN12C renal): > 100 µM | TGI (HOP-92 NSCLC): > 100 µM | TGI (M14 melanoma): > 100 µM | TGI (COLO 205 colon): > 100 µM

COC(=O)c1cc2c3ccccc3[nH]c2c2ncccc12
GI50 (SK-OV-3 ovarian): 43.3 µM | TGI (SK-OV-3 ovarian): > 100 µM | GI50 (DU-145 prostate): 47.1 µM | TGI (DU-145 prostate): > 100 µM | GI50 (NCI-H23 lung): 27.2 µM | TGI (NCI-H23 lung): > 100 µM | GI50 (PC-3 prostate): > 100 µM | TGI (PC-3 prostate): > 100 µM | GI50 (SF-268 CNS): 53.5 µM | TGI (SF-268 CNS): > 100 µM | GI50 (SN12C renal): > 100 µM | TGI (SN12C renal): > 100 µM | GI50 (HOP-92 NSCLC): > 100 µM | TGI (HOP-92 NSCLC): > 100 µM | GI50 (A498 renal): > 100 µM | TGI (A498 renal): > 100 µM | GI50 (COLO 205 colon): > 100 µM | TGI (COLO 205 colon): > 100 µM

CC(C)CC(=O)[O-].CC(C)CC(=O)[O-].N.N.N.N.[Co+3].[O-][Cl+3]([O-])([O-])[O-]
GI50 (SK-OV-3 ovarian): > 100 µM | TGI (SK-OV-3 ovarian): > 100 µM | GI50 (NCI-H23 lung): > 100 µM | TGI (NCI-H23 lung): > 100 µM | GI50 (SF-268 CNS): > 100 µM | TGI (SF-268 CNS): > 100 µM | GI50 (SN12C renal): > 100 µM | TGI (SN12C renal): > 100 µM | GI50 (HOP-92 NSCLC): > 100 µM | TGI (HOP-92 NSCLC): > 100 µM | GI50 (A498 renal): > 100 µM | TGI (A498 renal): > 100 µM | GI50 (M14 melanoma): > 100 µM | TGI (M14 melanoma): > 100 µM | GI50 (COLO 205 colon): > 100 µM | TGI (COLO 205 colon): > 100 µM

N#CC1(Cc2ccc(N)cc2)c2ccccc2C=CN1C(=O)c1ccccc1 (stereo not drawn)
TGI (SK-OV-3 ovarian): > 100 µM | TGI (NCI-H23 lung): > 100 µM | TGI (SF-268 CNS): > 100 µM | TGI (SN12C renal): > 100 µM | TGI (HOP-92 NSCLC): > 100 µM | TGI (A498 renal): > 100 µM | TGI (M14 melanoma): > 100 µM | TGI (COLO 205 colon): 85.7 µM

N#C/C(=C/c1ccsc1)C(=O)c1ccccc1
TGI (SK-OV-3 ovarian): > 100 µM | TGI (NCI-H23 lung): > 100 µM | TGI (SF-268 CNS): > 100 µM | TGI (SN12C renal): > 100 µM | TGI (HOP-92 NSCLC): > 100 µM | TGI (M14 melanoma): > 100 µM | TGI (COLO 205 colon): > 100 µM

COc1ccc(OC)c(NC(=O)C(=O)C(C(C)=O)c2nc3ccc(Cl)cc3[nH]c2=O)c1 (stereo not drawn)
TGI (SK-OV-3 ovarian): > 50 µM | TGI (NCI-H23 lung): > 50 µM | TGI (SF-268 CNS): > 50 µM | TGI (SN12C renal): > 50 µM | TGI (HOP-92 NSCLC): > 50 µM | TGI (A498 renal): > 50 µM | TGI (M14 melanoma): > 50 µM | TGI (COLO 205 colon): > 50 µM

COC(=O)CC(=O)C[P+](c1ccccc1)(c1ccccc1)c1ccccc1
TGI (SK-OV-3 ovarian): > 218 µM | TGI (NCI-H23 lung): > 218 µM | TGI (SF-268 CNS): > 218 µM | TGI (SN12C renal): > 218 µM | TGI (HOP-92 NSCLC): > 218 µM | TGI (COLO 205 colon): > 218 µM

O=C(N/N=C/c1ccccc1O)c1cccc([N+](=O)[O-])c1
TGI (SK-OV-3 ovarian): > 78.3 µM | TGI (NCI-H23 lung): > 95.5 µM | TGI (SF-268 CNS): > 100 µM | TGI (SN12C renal): > 100 µM | TGI (A498 renal): > 100 µM | TGI (M14 melanoma): 43.2 µM | TGI (COLO 205 colon): > 100 µM

COc1cc(/C=C/c2cc(/C=C/c3ccc(O)c(OC)c3)n(-c3ccccc3)n2)ccc1O
GI50 (SK-OV-3 ovarian): 0.334 µM | TGI (SK-OV-3 ovarian): 1.27 µM | GI50 (DU-145 prostate): 0.399 µM | TGI (DU-145 prostate): 1.4 µM | GI50 (NCI-H23 lung): 0.197 µM | TGI (NCI-H23 lung): 2 µM | GI50 (PC-3 prostate): 0.332 µM | TGI (PC-3 prostate): 12.7 µM | GI50 (SN12C renal): 0.313 µM | TGI (SN12C renal): 2.2 µM | GI50 (HOP-92 NSCLC): 0.452 µM | TGI (HOP-92 NSCLC): 4.25 µM | GI50 (A498 renal): 0.575 µM | TGI (A498 renal): 1.82 µM | GI50 (COLO 205 colon): 1.77 µM | TGI (COLO 205 colon): 3.31 µM

Clc1ccc(C2N3CCCCC3[C@@H]3c4[nH]c5ccccc5c4CCN23)cc1 (stereo partly drawn)
TGI (SK-OV-3 ovarian): > 100 µM | TGI (NCI-H23 lung): > 100 µM | TGI (SF-268 CNS): > 100 µM | TGI (SN12C renal): > 100 µM | TGI (HOP-92 NSCLC): > 100 µM | TGI (A498 renal): > 100 µM | TGI (M14 melanoma): > 100 µM

Cc1ccc(-c2c3c([nH]c(=O)c2C#N)-c2cc(F)ccc2OC3)cc1
GI50 (SK-OV-3 ovarian): 97.6 µM | TGI (SK-OV-3 ovarian): > 100 µM | GI50 (DU-145 prostate): > 100 µM | TGI (DU-145 prostate): > 100 µM | GI50 (PC-3 prostate): 88.7 µM | TGI (PC-3 prostate): > 100 µM | GI50 (SN12C renal): > 100 µM | TGI (SN12C renal): > 100 µM | GI50 (HOP-92 NSCLC): > 100 µM | TGI (HOP-92 NSCLC): > 100 µM | GI50 (A498 renal): > 100 µM | TGI (A498 renal): > 100 µM | GI50 (M14 melanoma): 29.9 µM | TGI (M14 melanoma): > 100 µM | GI50 (COLO 205 colon): > 100 µM | TGI (COLO 205 colon): > 100 µM

CCCCN(CCCC)C(=O)C(=O)C(C#N)c1ccc(C)cc1 (stereo not drawn)
TGI (NCI-H23 lung): > 100 µM | TGI (SF-268 CNS): > 100 µM | TGI (SN12C renal): > 100 µM | TGI (HOP-92 NSCLC): > 100 µM | TGI (A498 renal): > 100 µM | TGI (M14 melanoma): > 100 µM

COc1ccc2ccc3c(c2c1)CN1CCc2cc(OC)c(OC)cc2C1C3 (stereo not drawn)
TGI (SK-OV-3 ovarian): > 100 µM | TGI (NCI-H23 lung): > 100 µM | TGI (SN12C renal): > 100 µM | TGI (HOP-92 NSCLC): > 100 µM | TGI (M14 melanoma): > 100 µM | TGI (COLO 205 colon): > 100 µM

Cc1ccc(S(=O)(=O)C(CC(=O)N2CCCC2)C(=O)c2ccccc2)cc1 (stereo not drawn)
TGI (NCI-H23 lung): > 100 µM | TGI (SF-268 CNS): > 100 µM | TGI (SN12C renal): > 100 µM | TGI (HOP-92 NSCLC): > 100 µM | TGI (M14 melanoma): > 100 µM | TGI (COLO 205 colon): > 100 µM

O=C1OCc2c1cc1ccc(O)c(OC3OC(CO)C(O)C(O)C3O)c1c2-c1ccc2c(c1)OCO2 (stereo not drawn)
TGI (SK-OV-3 ovarian): > 100 µM | GI50 (NCI-H23 lung): 47.5 µM | TGI (NCI-H23 lung): > 100 µM | GI50 (SF-268 CNS): 57.1 µM | TGI (SF-268 CNS): > 100 µM | TGI (SN12C renal): > 100 µM | TGI (A498 renal): > 100 µM | TGI (M14 melanoma): > 100 µM | TGI (COLO 205 colon): > 100 µM

COC(=O)C1=C(C(=O)OC)C2C=CC1C1C(Cl)=C(Cl)C21 (stereo not drawn)
TGI (SK-OV-3 ovarian): > 100 µM | TGI (NCI-H23 lung): > 100 µM | TGI (SF-268 CNS): > 100 µM | TGI (SN12C renal): > 100 µM | TGI (HOP-92 NSCLC): > 100 µM | TGI (M14 melanoma): > 100 µM | TGI (COLO 205 colon): > 100 µM

Source: PubChem BioAssay (NCI)
